Assay results reported in patent US20240360154A1, “AROYL SUBSTITUTED TRICYCLIC COMPOUND, PREPARATION METHOD THEREFOR AND USE THEREOF” (GENFLEET THERAPEUTICS (SHANGHAI) INC., priority 2020, published 2024).

Experiments:
[1] = target: BTK (Homo sapiens (Human), UniProt Q06187); experiment: BTK enzyme experiment (ADP-Glo kinase assay); type: biochemical; details: 10 nM BTK, ATP 125 μM, Poly(Glu4, Tyr1), 90 minutes at 20° C.; read-out: BTK(WT) IC50
In short: (§1)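 Wild-type or C481S BTK, added as 2× solution at 10 nM, preincubated 10 min with 3-fold compound dilutions in 50 mM HEPES pH 7.5, 10 mM MgCl2, 2 mM DTT, 0.0015% Brij-35. ADP-Glo luminescence norm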

[2] = target: BTK (C481S) (Homo sapiens (Human), UniProt Q06187, C481S); experiment: BTK C481S enzyme experiment (ADP-Glo kinase assay); type: biochemical; details: 10 nM BTK C481S, ATP 125 μM, Poly(Glu4, Tyr1), 90 minutes at 20° C.
In short: as §1

[3] = target: p-BTK (WT) (Homo sapiens (Human), UniProt Q06187); experiment: p-BTK cell experiment, HEK293 transfected with WT-BTK plasmid (P-BTK Y223 sandwich ELISA); type: cell-based; details: HEK293 cells, compound cultured for two hours
Description: (§2) Day 1: HEK293 cells (ADDEXBIO, T0011001) at logarithmic growth phase were taken, digested with enzyme EDTA, collected and counted, and 2E6 cells were inoculated in a 10 cm culture dish and cultured overnight. Day 2: A mixed solution containing 6 μg of WT-BTK/C481S-BTK plasmid and 18 μL of FuGENE HD transfection reagent was prepared by using 1000 μL of Opti-MEM. After standing at room temperature for 10 minutes, the mixed solution was slowly added to the culture dish with a pipettor and cultured overnight. Day 3: The culture dish was taken out, and the cells were digested with enzyme EDTA, collected and counted, and 1E4 cells were inoculated in a 96-well cell culture plate and cultured overnight. A 3.16-fold gradient concentration stock solution of 1000× compound was prepared using DMSO, and placed at room temperature. Day 4: A prepared 1000× compound stock solution was taken, and diluted 200-fold to 5× compound stock solution with culture medium. 5× compound stock solution was added to each cell culture well with a final concentration of 1× compound stock solution and a DMSO content of 0.1%. DMSO was used as an experimental control. After the compound was added and cultured for two hours, the residual culture medium was removed. 100 μL of cell lysis buffer was added to each well, stood on ice for 30 minutes, and ultrasonically lysed with ice water for 5 minutes. After diluting the cell lysate in proportion, 80 μL of the mixture was transfer to an ELISA plate, and 80 μL of cell lysis buffer was added to the blank well. After incubating in an incubator at 37° C. for 2 hours, the plate was taken and the antibody incubation and color development termination operation were completed according to the instructions of Pathscan P-BTK (Y223) Sandwich ELISA Kit (Cell Signaling #23843 CA), and finally the OD value was read. The inhibition rate of the compound (%)=(ODcontrol−ODcompound)/(ODcontrol−ODblank)×100% was calculated. The compound gradient dilution concentration and the corresponding cell proliferation inhibition rate were fit by using Prism 8 four-parameter method, and IC50 value was calculated.

[4] = target: p-BTK (C481S) (Homo sapiens (Human), UniProt Q06187, C481S); experiment: p-BTK cell experiment, HEK293 transfected with C481S-BTK plasmid (P-BTK Y223 sandwich ELISA); type: cell-based; details: HEK293 cells, compound cultured for two hours
Description: as §2

[5] = system: TMD-8 cells; experiment: TMD-8 proliferation inhibition experiment; type: cell-based; details: human diffuse large B lymphoma cells, three days incubation
In short: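 Log-phase cells seeded in 384-well plates (600 TMD-8 in RPMI 1640, 2000 OCI-LY10 in IMDM, both 10% FBS), then exposed one day later to 3-fold compound dilutions at 0.25% DMSO for three days. ADP-Glo luminescence read; inhibition versus DMSO and medium-only blank, IC50 by four-parameter fit.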

BTK (C481S), sequence (Q06187 whole entry C481S): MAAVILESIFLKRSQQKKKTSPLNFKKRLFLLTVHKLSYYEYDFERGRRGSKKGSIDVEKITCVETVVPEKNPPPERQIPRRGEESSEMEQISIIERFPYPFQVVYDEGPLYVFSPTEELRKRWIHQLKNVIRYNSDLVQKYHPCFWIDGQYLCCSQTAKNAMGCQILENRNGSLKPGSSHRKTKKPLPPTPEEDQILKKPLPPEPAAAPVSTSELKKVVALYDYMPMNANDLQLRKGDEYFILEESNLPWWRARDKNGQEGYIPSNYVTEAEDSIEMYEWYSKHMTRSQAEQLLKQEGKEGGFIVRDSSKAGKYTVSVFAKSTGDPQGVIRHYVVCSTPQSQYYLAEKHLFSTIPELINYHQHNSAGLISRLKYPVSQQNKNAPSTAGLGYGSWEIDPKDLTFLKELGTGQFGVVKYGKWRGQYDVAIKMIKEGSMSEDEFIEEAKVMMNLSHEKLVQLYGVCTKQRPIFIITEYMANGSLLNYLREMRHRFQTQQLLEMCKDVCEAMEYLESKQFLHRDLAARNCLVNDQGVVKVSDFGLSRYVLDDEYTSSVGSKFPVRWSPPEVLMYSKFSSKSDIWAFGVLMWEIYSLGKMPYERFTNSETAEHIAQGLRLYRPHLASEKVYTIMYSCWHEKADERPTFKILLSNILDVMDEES
p-BTK (C481S), sequence (Q06187 whole entry C481S): as above
BTK, sequence (Q06187 whole entry): as the sequence (Q06187 whole entry C481S) above, with S481C counted along it
p-BTK (WT), sequence (Q06187 whole entry): as the sequence (Q06187 whole entry C481S) above, with S481C counted along it

Row | Compound | IC50 [1] [nM] | IC50 [2] [nM] | IC50 [3] [nM] | IC50 [4] [nM] | IC50 [5] [nM] | IC50 ([5]; Homo sapiens, TMD8, 72 h) [nM]
1 | CC(=O)N1CC[C@]2(C1)Nc1c(cnc3[nH]cc(C(=O)c4ccc(Oc5ccccc5)cc4Cl)c13)NC2=O (single isomer, unassigned) [Z4-1] | 17 | 6.8 | 70.8 | 97.6 | 305 | –
2 | C[C@@]1(CO)Nc2c(cnc3[nH]cc(C(=O)c4ccc(Oc5ccccc5)cc4Cl)c23)NC1=O (single isomer, unassigned) [Z9-2] | 9.5 | 10.8 | 62.6 | 134 | 73.8 | –
3 | O=C(c1ccc(Oc2ccccc2)cc1Cl)c1c[nH]c2ncc3c(c12)N[C@]1(CCCOC1)C(=O)N3 (single isomer, unassigned) [Z16-1] | 7.6 | 9.1 | 17.3 | 36.6 | 42.8 | –
4 | O=C(c1ccc(Oc2ccccc2)cc1Cl)c1c[nH]c2ncc3c(c12)N[C@@]1(CCCOC1)C(=O)N3 (single isomer, unassigned) [Z16-2] | 5 | 5.6 | 10.4 | 10.4 | 23 | –
5 | O=C(c1ccc(Oc2ccccc2)cc1Cl)c1c[nH]c2ncc3c(c12)N[C@@]1(CC[C@@H](O)C1)C(=O)N3 (single isomer, unassigned) [Z24-a] | 5.5 | 8.4 | 46.9 | 50 | 113 | –
6 | O=C(c1ccc(Oc2ccccc2)cc1Cl)c1c[nH]c2ncc3c(c12)N[C@]1(CC[C@H](O)C1)C(=O)N3 (single isomer, unassigned) [Z24-b] | 4.2 | 5.8 | 39.5 | 39 | 80.8 | –
7 | O=C(c1ccc(Oc2ccccc2)cc1Cl)c1c[nH]c2ncc3c(c12)N[C@]1(CC[C@@H](O)C1)C(=O)N3 (single isomer, unassigned) [Z24-c] | 3.2 | 3 | 19.6 | 16.2 | 50.6 | –
8 | O=C(c1ccc(Oc2ccccc2)cc1Cl)c1c[nH]c2ncc3c(c12)N[C@@]1(CC[C@H](O)C1)C(=O)N3 (single isomer, unassigned) [Z24-d] | 3.4 | 3.1 | 16.9 | 15.3 | 52 | –
9 | COC1CCC2(C1)Nc1c(cnc3[nH]cc(C(=O)c4ccc(Oc5ccccc5)cc4Cl)c13)NC2=O (single isomer, unassigned) [Z25-2, 9′-(2-chloro-4-phenoxybenzoyl)-3-methoxy-4′,7′-dihydrospiro[cyclopentane-1,2′-pyrrolo[3′,2′:5,6]pyrido[3,4-b]pyrazin]-3′(1′H)-one] | 14.7 | 8.7 | 15.2 | 32.7 | 80.4 | –
10 | N#C[C@@H]1CC[C@]2(C1)Nc1c(cnc3[nH]cc(C(=O)c4ccc(Oc5ccccc5)cc4Cl)c13)NC2=O (single isomer, unassigned) [Z26-1] | 15.6 | 15.4 | 31.5 | 38.4 | 47.7 | –
11 | COCC1(C)Nc2c(cnc3[nH]cc(C(=O)c4ccc(Oc5cc(C)ccn5)cc4Cl)c23)NC1=O (single isomer, unassigned) [Z64-1, 9-(2-chloro-4-((4-methylpyridin-2-yl)oxy)benzoyl)-2-(methoxymethyl)-2-methyl-1,2,4,7-tetrahydro-3H-pyrrolo[3′,2′:5,6]pyrido[3,4-b]pyrazin-3-one] | 6.3 | 10.7 | 58.5 | 198 | – | 194
12 | [2H]C([2H])([2H])OC[C@]1(C)Nc2c(cnc3[nH]cc(C(=O)c4ccc(Oc5ccccc5)cc4Cl)c23)NC1=O (single isomer, unassigned) [Z66-1] | 6.7 | 3.8 | 29.6 | 38.1 | – | 94.8
13 | CCOC[C@]1(C)Nc2c(cnc3[nH]cc(C(=O)c4ccc(Oc5ccccc5)cc4Cl)c23)NC1=O (single isomer, unassigned) [Z67-1] | 9.6 | 10.3 | 37.3 | 42.6 | – | 161
14 | COC[C@@]1(C)Nc2c(cnc3[nH]cc(C(=O)c4ccc(Oc5ccccc5)cc4F)c23)NC1=O (single isomer, unassigned) [Z71-1] | 8.5 | 8.3 | 32.3 | 40.3 | 180 | –

Continued, in another order:

Row | IC50 [1] [nM] | IC50 [2] [nM] | IC50 [3] [nM] | IC50 [4] [nM] | Compound | IC50 [5] [nM] | IC50 ([5]; Homo sapiens, TMD8, 72 h) [nM]
15 | 17.1 | 10.3 | 375 | 340 | CC(=O)N1CCC2(C1)Nc1c(cnc3[nH]cc(C(=O)c4ccc(Oc5ccccc5)cc4Cl)c13)NC2=O (stereo not shown) [Z4] | – | –
16 | 27.8 | 12 | 35.8 | 36.6 | CN1CCC2(C1)Nc1c(cnc3[nH]cc(C(=O)c4ccc(Oc5ccccc5)cc4F)c13)NC2=O (stereo not shown) [Z5] | – | –
17 | 6.5 | 13.3 | 65.8 | 90 | COCC1(C)Nc2c(cnc3[nH]cc(C(=O)c4ccc(Oc5cc(C)ccn5)cc4Cl)c23)NC1=O (stereo not shown) [Z64, 9-(2-chloro-4-((4-methylpyridin-2-yl)oxy)benzoyl)-2-(methoxymethyl)-2-methyl-1,2,4,7-tetrahydro-3H-pyrrolo[3′,2′:5,6]pyrido[3,4-b]pyrazin-3-one] | – | –
18 | 4.3 | 2 | 2.5 | 1 | CC1(C)Nc2c(cnc3[nH]cc(C(=O)c4ccccc4Cl)c23)NC1=O [Z120, 9-(2-chlorobenzoyl)-2,2-dimethyl-1,2,4,7-tetrahydro-3H-pyrrolo[3′,2′:5,6]pyrido[3,4-b]pyrazin-3-one] | – | –
19 | 26.5 | 18.4 | – | – | COC[C@]1(C)Nc2c(cnc3[nH]cc(C(=O)c4ccc(Oc5cccc(F)c5OC)cc4Cl)c23)NC1=O [Z173, (S)-9-(2-chloro-4-(3-fluoro-2-methoxyphenoxy)benzoyl)-2-(methoxymethyl)-2-methyl-1,2,4,7-tetrahydro-3H-pyrrolo[3′,2′:5,6]pyrido[3,4-b]pyrazin-3-one] | – | 366
20 | 6.4 | 11.1 | – | – | COC[C@]1(C)Nc2c(cnc3[nH]cc(C(=O)c4ccc(Oc5c(OC)ccc(F)c5F)cc4Cl)c23)NC1=O [Z177, (S)-9-(2-chloro-4-(2,3-difluoro-6-methoxyphenoxy)benzoyl)-2-(methoxymethyl)-2-methyl-1,2,4,7-tetrahydro-3H-pyrrolo[3′,2′:5,6]pyrido[3,4-b]pyrazin-3-one] | – | 34.6
21 | 36.2 | 42.3 | – | – | [2H]C([2H])([2H])Oc1c(F)cccc1Oc1ccc(C(=O)c2c[nH]c3ncc4c(c23)N[C@@](C)(COC)C(=O)N4)c(Cl)c1 [Z178, (S)-9-(2-chloro-4-(3-fluoro-2-(methoxy-d3)phenoxy)benzoyl)-2-(methoxymethyl)-2-methyl-1,2,4,7-tetrahydro-3H-pyrrolo[3′,2′:5,6]pyrido[3,4-b]pyrazin-3-one] | – | 257
22 | 3.9 | 3.9 | 2.8 | 1.4 | COC[C@]1(C)Nc2c(cnc3[nH]cc(C(=O)c4ccc(F)c(F)c4Cl)c23)NC1=O [Z195, (S)-9-(2-chloro-3,4-difluorobenzoyl)-2-(methoxymethyl)-2-methyl-1,2,4,7-tetrahydro-3H-pyrrolo[3′,2′:5,6]pyrido[3,4-b]pyrazin-3-one] | – | –
23 | 3 | 1.3 | 5.2 | 1.6 | O=C(c1ccccc1Cl)c1c[nH]c2ncc3c(c12)NC1(CCOCC1)C(=O)N3 [Z197, 9′-(2-chlorobenzoyl)-2,3,4′,5,6,7′-hexahydrospiro[pyran-4,2′-pyrrolo[3′,2′:5,6]pyrido[3,4-b]pyrazin]-3′(1′H)-one] | – | –
